{
  "source": "patent US20010025018A1",
  "about": "“Antimicrobial activity of laccases” (priority 1997, published 2001)",
  "key": {"[1]": {"test_system": "Staphylococcus epidermidis (DSM20042)", "assay": "Bactericidal activity of laccase/enhancer systems, Malthus conductance enumeration of surviving cells", "format": "cell-based", "details": "for Bactericidal activity (log(cfu/ml)=the logarithm to the number of killed cells): enhancer 0.1 mM with rPpL or rMtL 3 mg/L, 20 min, approx. 10^4 cfu/ml; for Bactericidal activity (log(cfu/ml)=the logarithm to the number of killed cells) / bactericidal activity when combined with laccase / bactericidal activity without laccase / bactericidal activity when combined with Polyporus laccase: pH 6, 40° C.; for bactericidal activity when combined with laccase: laccase (rMtL or rPpL) 3 mg/L; for bactericidal activity when combined with laccase / bactericidal activity without laccase / bactericidal activity when combined with Polyporus laccase: 20 minutes; for bactericidal activity without laccase: no laccase; for bactericidal activity when combined with Polyporus laccase: rPpL 3 mg/L", "method": "Bactericidal activity was evaluated in 0.05 M MES-buffer (2-[N-morpholino]ethanesulfonic acid) (pH 6), which were flushed with air for 5 min before filter sterilisation. The bactericidal activity was determined against Pseudomonas aeruginosa (ATCC10145) and Staphylococcus epidermidis (DSM20042). Cells were grown in Tryptone Soya Broth (Oxoid CM129) at 30° C. for 24 h and diluted in the MES-buffer to a final cell concentration of approximately 10^4 cfu/ml. The cell suspensions were mixed with laccase (3 mg/L) and enhancer (0.1 mM) for 20 min at 40° C. The bactericidal activity was determined by incubation in Malthus. Detection times measured by the Malthus instrument were converted to cfu/ml by a calibration curve. Either direct or indirect Malthus measurements were used when enumerating total survival cells (Malthus Flexi M2060, Malthus Instrument Limited). By the direct measurements, the cell metabolism was determined by conductance measurements in the growth substrate. By the indirect measurements, 3 ml of growth medium was transferred to the outer chamber of the indirect Malthus cells, and 0.5 ml of sterile KOH (0.1 M) was transferred to the inner chamber. The cell suspensions were after enzyme treatment transferred to the outer chamber of the Malthus cell. As cells are growing in the outer chamber they produce CO2 which will dissolve in the KOH in the inner chamber and thereby change the conductance of the KOH. The amount of CO2 formed by the respiring cells surviving the enzyme treatment was used for estimating the number of viable cells. When the conductance change is measurable by the Malthus, a detection time (dt) will be recorded. The dt-s were converted to colony counts by use of a calibration curve relating cfu/ml to dt (Johansen et al. 1995. Journal of Applied Bacteriology 78:297-303, Johansen et al. 1997, Applied and Environmental Microbiology 63:3724-3728). […]"}, "[2]": {"test_system": "Pseudomonas aeruginosa (ATCC10145)", "assay": "Bactericidal activity of laccase/enhancer systems, Malthus conductance enumeration of surviving cells", "format": "cell-based", "details": "for Bactericidal activity (log(cfu/ml)=the logarithm to the number of killed cells): enhancer 0.1 mM with rPpL or rMtL 3 mg/L, 20 min, approx. 10^4 cfu/ml", "method": "Bactericidal activity was evaluated in 0.05 M MES-buffer (2-[N-morpholino]ethanesulfonic acid) (pH 6), which were flushed with air for 5 min before filter sterilisation. The bactericidal activity was determined against Pseudomonas aeruginosa (ATCC10145) and Staphylococcus epidermidis (DSM20042). Cells were grown in Tryptone Soya Broth (Oxoid CM129) at 30° C. for 24 h and diluted in the MES-buffer to a final cell concentration of approximately 10^4 cfu/ml. The cell suspensions were mixed with laccase (3 mg/L) and enhancer (0.1 mM) for 20 min at 40° C. The bactericidal activity was determined by incubation in Malthus. Detection times measured by the Malthus instrument were converted to cfu/ml by a calibration curve. Either direct or indirect Malthus measurements were used when enumerating total survival cells (Malthus Flexi M2060, Malthus Instrument Limited). By the direct measurements, the cell metabolism was determined by conductance measurements in the growth substrate. By the indirect measurements, 3 ml of growth medium was transferred to the outer chamber of the indirect Malthus cells, and 0.5 ml of sterile KOH (0.1 M) was transferred to the inner chamber. The cell suspensions were after enzyme treatment transferred to the outer chamber of the Malthus cell. As cells are growing in the outer chamber they produce CO2 which will dissolve in the KOH in the inner chamber and thereby change the conductance of the KOH. The amount of CO2 formed by the respiring cells surviving the enzyme treatment was used for estimating the number of viable cells. When the conductance change is measurable by the Malthus, a detection time (dt) will be recorded. The dt-s were converted to colony counts by use of a calibration curve relating cfu/ml to dt (Johansen et al. 1995. Journal of Applied Bacteriology 78:297-303, Johansen et al. 1997, Applied and Environmental Microbiology 63:3724-3728).\nAntimicrobial activity (i.e. bactericidal activity) of Myceliophthera laccase (rMtL) and methylsyringate (MeS) was determined using a 32 factorial design at pH 6 at 40° C. in MES-buffer as described in example 1, however, a higher cell concentration was used (10^7-10^8 cfu/ml). Tested rMtL levels was 0-2,5-5 mg/L and MeS levels was 0-5-10 mM.\nAntimicrobial activity (i.e. bactericidal activity) of Myceliophthera laccase (rMtL) and Polyporus laccase (rPpL) was determined against Staphylococcus epidermidis at pH 6 in MES-buffer as described in example 1, the laccases was used in the concentration of 3 mg/L. Acetosyringon, methylsyringate, ethylsyringate, butylsyringate and laurylsyringate were evaluated as electron-donors in the concentration of 0.2 mM.\nAntimicrobial activity of laccases with two enhancers was determined against Pseudomonas aeruginosa (ATCC 10145) and Staphylococcus epidermidis (DSM 20042) at pH 6 as described in example 1. Methylsyringate and acetosyringon was used as enhancers and the laccase was rPpL (1 mg/L) and the antimicrobial activity was determined by use of a 32 factorial experimental design."}},
  "data": [
    {"smiles": "O=C(O)CCN1c2ccccc2Sc2ccccc21", "note": "[PPT, reference compound]", "values": [
      {"measurement": "Bactericidal activity (log(cfu/ml)=the logarithm to the number of killed cells)", "setting": "[1]", "result": "None of the other enhancers resulted in bactericidal activity"},
      {"measurement": "Bactericidal activity (log(cfu/ml)=the logarithm to the number of killed cells)", "setting": "[2]; pH 6, 40° C.", "result": "None of the other enhancers resulted in bactericidal activity"}
    ]},
    {"smiles": "COc1cc(C(C)=O)cc(OC)c1O", "note": "[acetosyringon]", "values": [
      {"measurement": "bactericidal activity when combined with laccase", "setting": "[1]; enhancer 0.2 mM", "result": "significantly increased"},
      {"measurement": "bactericidal activity without laccase", "setting": "[1]; enhancer 0.2 mM", "result": "did also show bactericidal activity"},
      {"measurement": "bactericidal activity with Myceliophthera laccase", "setting": "[1]; enhancer 0.2 mM, rMtL 3 mg/L, pH 6, compared to Polyporus laccase and to the other syringate compounds", "result": "decreased"},
      {"measurement": "bactericidal activity when combined with Polyporus laccase", "setting": "[1]; enhancer 0.2 mM", "result": 100, "unit": "%"},
      {"measurement": "bactericidal activity, comparison of the syringate-compounds as enhancers", "setting": "[2]; different syringate-compounds with laccase", "result": "most bactericidal enhancer"},
      {"measurement": "cell reduction", "setting": "[2]; with rPpL (1 mg/L), pH 6, 40° C.", "result": "approximately 1.5 log units"}
    ]},
    {"smiles": "CCCCOC(=O)c1cc(OC)c(O)c(OC)c1", "note": "[butylsyringate]", "values": [
      {"measurement": "bactericidal activity when combined with Polyporus laccase", "setting": "[1]; enhancer 0.2 mM", "result": 100, "unit": "%"}
    ]},
    {"smiles": "O=C(/C=C/c1ccc(O)c(O)c1)O[C@@H]1C[C@](O)(C(=O)O)C[C@@H](O)[C@H]1O", "note": "[chlorogenic acid, reference compound]", "values": [
      {"measurement": "Bactericidal activity (log(cfu/ml)=the logarithm to the number of killed cells)", "setting": "[1]", "result": "None of the other enhancers resulted in bactericidal activity"},
      {"measurement": "Bactericidal activity (log(cfu/ml)=the logarithm to the number of killed cells)", "setting": "[2]; pH 6, 40° C.", "result": "None of the other enhancers resulted in bactericidal activity"}
    ]},
    {"smiles": "O=C(O)C=Cc1ccccc1", "note": "[cinnamic acid, reference compound]", "values": [
      {"measurement": "Bactericidal activity (log(cfu/ml)=the logarithm to the number of killed cells)", "setting": "[1]", "result": "None of the other enhancers resulted in bactericidal activity"},
      {"measurement": "Bactericidal activity (log(cfu/ml)=the logarithm to the number of killed cells)", "setting": "[2]; pH 6, 40° C.", "result": "None of the other enhancers resulted in bactericidal activity"}
    ]},
    {"smiles": "CCOC(=O)c1cc(OC)c(O)c(OC)c1", "note": "[ethylsyringate]", "values": [
      {"measurement": "bactericidal activity when combined with Polyporus laccase", "setting": "[1]; enhancer 0.2 mM", "result": 100, "unit": "%"}
    ]},
    {"smiles": "CCCCCCCCCCCCOC(=O)c1cc(OC)c(O)c(OC)c1", "note": "[laurylsyringate]", "values": [
      {"measurement": "bactericidal activity when combined with laccase", "setting": "[1]; enhancer 0.2 mM", "result": "significantly increased"},
      {"measurement": "bactericidal activity without laccase", "setting": "[1]; enhancer 0.2 mM", "result": "did also show bactericidal activity"}
    ]},
    {"smiles": "COc1cc(C=O)cc(OC)c1O", "note": "[syringaldehyde]", "values": [
      {"measurement": "Bactericidal activity (log(cfu/ml)=the logarithm to the number of killed cells)", "setting": "[1]", "result": "None of the other enhancers resulted in bactericidal activity"},
      {"measurement": "Bactericidal activity (log(cfu/ml)=the logarithm to the number of killed cells)", "setting": "[2]; pH 6, 40° C.", "result": "None of the other enhancers resulted in bactericidal activity"}
    ]}
  ]
}
